Measurements as given in ChEMBL document CHEMBL1201862, “PubChem BioAssay data set” (2004).
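Tested at 5 concentrations; 48 h exposure; 96-well plates; endpoints linearly interpolated, else capped at highest concentration. The concentration for 50% growth inhibition is given as GI50.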 Active and inactive are the calls of the source. Rule as the data show it: active = GI50 up to about 1.1 µM and inactive = higher.

What was measured:
Assay in all cases: DTP human tumour cell line panel, 48 h
[1] = system: SNB-19
[2] = system: TK-10
[3] = system: U-251
[4] = system: SF-268
[5] = system: MDA-N
[6] = system: HCT-15
[7] = system: RPMI-8226
[8] = system: UACC-62
[9] = system: NCI-H226
[10] = system: LOX IMVI
[11] = system: A549
[12] = system: OVCAR-4
[13] = system: HCT-116
[14] = system: SK-MEL-2
[15] = system: MDA-MB-435
[16] = system: RXF 393
[17] = system: SK-MEL-28
[18] = system: OVCAR-5
[19] = system: SNB-75
[20] = system: NCI-H460
[21] = system: SN12C
[22] = system: NCI-H23
[23] = system: CAKI-1
[24] = system: SK-MEL-5
[25] = system: ACHN
[26] = system: BT-549
[27] = system: PC-3
[28] = system: Malme-3M
[29] = system: A498
[30] = system: HOP-62
[31] = system: SF-295
[32] = system: K562
[33] = system: UO-31
[34] = system: SW-620
[35] = system: COLO 205
[36] = system: MDA-MB-231
[37] = system: M14
[38] = system: T47D
[39] = system: CCRF-CEM
[40] = system: MOLT-4
[41] = system: HCC 2998
[42] = system: HT-29
[43] = system: HOP-92
[44] = system: UACC-257
[45] = system: 786-0
[46] = system: SF-539
[47] = system: MCF7
[48] = system: EKVX
[49] = system: NCI-H522
[50] = system: Hs-578T
[51] = system: OVCAR-3
[52] = system: OVCAR-8
[53] = system: DU-145
[54] = system: NCI/ADR-RES
[55] = system: IGROV-1
[56] = system: SK-OV-3
[57] = system: KM12
[58] = system: HL-60
[59] = system: SR

## CN(C)CCNCc1ccc2c(-c3ccccc3)nc3cc(Cl)c(Cl)cc3n12
[1]
  GI50: 14 µM (inactive)
[2]
  GI50: 10.9 µM (inactive)
[3]
  GI50: 9.08 µM (inactive)
[4]
  GI50: 13.9 µM (inactive)
[5]
  GI50: 9.48 µM (inactive)
[6]
  GI50: 9.62 µM
[7]
  GI50: 12.8 µM (inactive)
[8]
  GI50: 8.85 µM (inactive)
[9]
  GI50: 17.9 µM (inactive)
[10]
  GI50: 7.48 µM (inactive)
[11]
  GI50: 10.1 µM (inactive)
[12]
  GI50: 11.3 µM (inactive)
[13]
  GI50: 7.74 µM (inactive)
[14]
  GI50: 9.57 µM (inactive)
[15]
  GI50: 8.69 µM (inactive)
[16]
  GI50: 4.98 µM (inactive)
[17]
  GI50: 5.78 µM (inactive)
[18]
  GI50: 10.6 µM (inactive)
[19]
  GI50: 7.46 µM (inactive)
[20]
  GI50: 9.68 µM (inactive)
[21]
  GI50: 9.93 µM (inactive)
[22]
  GI50: 14.6 µM (inactive)
[23]
  GI50: 8.51 µM (inactive)
[24]
  GI50: 8.32 µM (inactive)
[25]
  GI50: 7.6 µM (inactive)
[26]
  GI50: 16.4 µM (inactive)
[27]
  GI50: 10.9 µM (inactive)
[28]
  GI50: 17.5 µM (inactive)
[29]
  GI50: 15.2 µM (inactive)
[30]
  GI50: 7.33 µM (inactive)
[31]
  GI50: 13.1 µM (inactive)
[32]
  GI50: 8.32 µM (inactive)
[33]
  GI50: 7.83 µM (inactive)
[34]
  GI50: 8.83 µM (inactive)
[35]
  GI50: 6.92 µM (inactive)
[36]
  GI50: 10.2 µM (inactive)
[37]
  GI50: 8.13 µM (inactive)
[38]
  GI50: 4.94 µM (inactive)
[39]
  GI50: 1.3 µM (inactive)
[40]
  GI50: 8.53 µM (inactive)
[41]
  GI50: 2.33 µM (inactive)
[42]
  GI50: 8.3 µM (inactive)
[43]
  GI50: 13.1 µM (inactive)
[44]
  GI50: 9.4 µM (inactive)
[45]
  GI50: 5.96 µM (inactive)
[46]
  GI50: 7.35 µM (inactive)
[47]
  GI50: 6.19 µM (inactive)
[48]
  GI50: 15.3 µM (inactive)
[49]
  GI50: 13.6 µM (inactive)
[50]
  GI50: 17.9 µM (inactive)
[51]
  GI50: 17.5 µM (inactive)
[52]
  GI50: 11.1 µM (inactive)
[53]
  GI50: 9.64 µM (inactive)
[54]
  GI50: 15.8 µM (inactive)
[55]
  GI50: 7.59 µM (inactive)
[56]
  GI50: 6.43 µM (inactive)
[57]
  GI50: 9.73 µM (inactive)
[58]
  GI50: 2.01 µM (inactive)

## Cc1c/c(=N\c2ccc3c(c2)c(N)cc(C)[n+]3C)nc(N)n1C
[1]
  GI50: > 100 µM (inactive)
[2]
  GI50: > 100 µM (inactive)
[3]
  GI50: 88.3 µM (inactive)
[4]
  GI50: > 100 µM (inactive)
[5]
  GI50: > 100 µM (inactive)
[6]
  GI50: > 100 µM
[7]
  GI50: > 100 µM (inactive)
[8]
  GI50: > 100 µM (inactive)
[10]
  GI50: > 100 µM (inactive)
[11]
  GI50: > 100 µM (inactive)
[12]
  GI50: > 100 µM (inactive)
[13]
  GI50: > 100 µM (inactive)
[59]
  GI50: > 100 µM (inactive)
[14]
  GI50: > 100 µM (inactive)
[15]
  GI50: > 100 µM (inactive)
[16]
  GI50: > 100 µM (inactive)
[17]
  GI50: > 100 µM (inactive)
[18]
  GI50: > 100 µM (inactive)
[19]
  GI50: > 100 µM (inactive)
[20]
  GI50: > 100 µM (inactive)
[21]
  GI50: 92.7 µM (inactive)
[22]
  GI50: > 100 µM (inactive)
[23]
  GI50: > 100 µM (inactive)
[24]
  GI50: > 100 µM (inactive)
[25]
  GI50: > 100 µM (inactive)
[26]
  GI50: > 100 µM (inactive)
[27]
  GI50: > 100 µM (inactive)
[28]
  GI50: > 100 µM (inactive)
[29]
  GI50: > 100 µM (inactive)
[30]
  GI50: 87.7 µM (inactive)
[31]
  GI50: > 100 µM (inactive)
[32]
  GI50: > 100 µM (inactive)
[33]
  GI50: > 100 µM (inactive)
[34]
  GI50: > 100 µM (inactive)
[35]
  GI50: > 100 µM (inactive)
[36]
  GI50: > 100 µM (inactive)
[37]
  GI50: > 100 µM (inactive)
[38]
  GI50: > 100 µM (inactive)
[39]
  GI50: > 100 µM (inactive)
[40]
  GI50: > 100 µM (inactive)
[42]
  GI50: > 100 µM (inactive)
[43]
  GI50: > 100 µM (inactive)
[44]
  GI50: > 100 µM (inactive)
[45]
  GI50: > 100 µM (inactive)
[46]
  GI50: > 100 µM (inactive)
[47]
  GI50: > 100 µM (inactive)
[48]
  GI50: > 100 µM (inactive)
[49]
  GI50: > 100 µM (inactive)
[50]
  GI50: > 100 µM (inactive)
[51]
  GI50: > 100 µM (inactive)
[52]
  GI50: 86.3 µM (inactive)
[53]
  GI50: > 100 µM (inactive)
[54]
  GI50: > 100 µM (inactive)
[55]
  GI50: > 100 µM (inactive)
[56]
  GI50: > 100 µM (inactive)
[57]
  GI50: > 100 µM (inactive)
